From patent US12209091B2, “Isoindolinone derivatives as selective allosteric inhibitors of Egfr mutant cancers” (Hoffmann-La Roche Inc., priority 2018, dated 2025) come the findings set out here.

pIC50: −log10 of the molar value.

The target in this test is T1, Phospho EGFR TMLR (H1975 cells) (Homo sapiens, UniProt P00533, L858R/T790M).
T1 construct: H1975 cell line (CRL-5908; Lot BA70803) was obtained from American Type Culture Collection; host or cells: H1975
Nature of the test: HTRF Phospho EGFR TMLR assay (cellular), H1975. It is filed as cell-based. Conditions: H1975 cell line, 16 hours compound incubation, Phospho-EGFR HTRF readout. As for the experimental part:
HTRF Phospho EGFR TMLR Assay (Cellular)
H1975 cell line (CRL-5908; Lot BA70803) was obtained from American Type Culture Collection (Manassas, VA, USA). Cells were maintained at 37° C., 5% CO2 in complete Media RPMI 1640 without phenol red containing 0.3 mg/ml glutamine, 100 IU/ml penicillin, and […] streptomycin (Gibco, 15140-122) supplemented with 10% fetal bovine serum (FBS, Gibco, 10091-148). Compounds were diluted into starving medium RPMI 1640 Media (Gibco, 11835-030) without phenol red containing 0.3 mg/ml glutamine, 100 IU/ml penicillin, and […] streptomycin (Gibco).
Cells were cultured for 24 h in a 384-well plate (Greiner Bio-One, Nr. 784-080; 5000 cells/well) using 8 μl of complete medium/well. Then 4 μl/well of the 3× compound solution, containing a factor 3 dilution series of the compound or DMSO in starving medium, were added to the cells (final DMSO 0.33%). After 16 hours at 37° C., 5% CO2, 95% rel. humidity cells were lysed by adding to the compound mix 4 μl/well of the supplemented lysis buffer (Cis-bio, Phospho-EGFR HTRF kit, 64EG1PEH), followed by incubation for 30 min at room temperature with shaking (400 rpm). Then 4 μl of a mixture of anti-Phospho-EGFR Cryptate and of anti-Phospho-EGFR-d2 antibody solutions prepared in the detection buffer was added. The plates were then incubated for 4 h at room temperature before reading the fluorescence emission at 620 and 665 nm using an Envision reader (Perkin Elmer).
In general terms: In TR-FRET formats the signal depends on donor and acceptor labels being close together.

T1 sequence (P00533 25-1210 T790M/L858R): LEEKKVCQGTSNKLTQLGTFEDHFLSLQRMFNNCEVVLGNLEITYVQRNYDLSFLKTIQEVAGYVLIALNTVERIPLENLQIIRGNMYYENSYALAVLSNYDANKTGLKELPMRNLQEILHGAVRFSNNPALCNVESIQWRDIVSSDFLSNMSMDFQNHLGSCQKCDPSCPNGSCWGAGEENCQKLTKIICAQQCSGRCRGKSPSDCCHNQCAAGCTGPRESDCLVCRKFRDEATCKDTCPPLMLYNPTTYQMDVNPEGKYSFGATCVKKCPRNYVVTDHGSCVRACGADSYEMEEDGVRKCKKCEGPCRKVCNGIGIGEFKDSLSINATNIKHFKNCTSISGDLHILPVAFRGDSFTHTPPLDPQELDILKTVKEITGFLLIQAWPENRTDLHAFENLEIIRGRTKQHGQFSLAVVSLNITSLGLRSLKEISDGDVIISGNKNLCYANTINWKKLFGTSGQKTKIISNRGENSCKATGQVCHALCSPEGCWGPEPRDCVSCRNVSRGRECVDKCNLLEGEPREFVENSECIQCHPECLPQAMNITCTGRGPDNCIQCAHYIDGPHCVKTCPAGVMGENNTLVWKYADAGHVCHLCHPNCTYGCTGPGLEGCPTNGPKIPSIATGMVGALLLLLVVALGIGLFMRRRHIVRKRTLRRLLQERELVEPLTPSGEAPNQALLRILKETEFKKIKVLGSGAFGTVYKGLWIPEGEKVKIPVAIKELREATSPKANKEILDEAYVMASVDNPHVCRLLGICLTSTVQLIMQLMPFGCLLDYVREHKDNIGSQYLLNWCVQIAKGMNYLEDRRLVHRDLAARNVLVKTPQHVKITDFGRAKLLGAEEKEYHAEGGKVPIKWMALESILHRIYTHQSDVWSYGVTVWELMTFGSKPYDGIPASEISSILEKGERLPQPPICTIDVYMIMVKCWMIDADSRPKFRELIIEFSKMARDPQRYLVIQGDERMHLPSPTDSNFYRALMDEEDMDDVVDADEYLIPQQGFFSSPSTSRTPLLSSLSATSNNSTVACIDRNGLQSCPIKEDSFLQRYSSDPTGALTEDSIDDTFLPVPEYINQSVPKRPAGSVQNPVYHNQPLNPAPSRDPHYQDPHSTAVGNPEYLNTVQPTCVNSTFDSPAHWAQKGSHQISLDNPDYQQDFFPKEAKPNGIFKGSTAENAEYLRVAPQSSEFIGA

In general, pIC50 refers to −log10 of the IC50, conventionally taken in molar units. As to `O=C(Nc1nccs1)C(c1ncn2c1CCC2)N1Cc2c(F)cc(C#Cc3ccc(CN4CCC(O)CC4)cc3)c(Cl)c2C1=O` (racemic) [Example 13, (2RS)-2-[7-chloro-4-fluoro-6-[2-[4-[(4-hydroxy-1-piperidyl)methyl]phenyl]ethynyl]-1-oxo-isoindolin-2-yl]-2-(6,7-dihydro-5H-pyrrolo[1,2-c]imidazol-1-yl)-N-thiazol-2-yl-acetamide], the pIC50 is 8.52.

Regarding `CCN1CCN(c2ccc(-c3cc(Cl)c4c(c3)C(=O)N(C(C(=O)Nc3nccs3)c3ncn5c3CCC5)C4)cc2)CC1` (racemic) [Example 6, (2RS)-2-[4-Chloro-6-[4-(4-ethylpiperazin-1-yl)phenyl]-1-oxo-isoindolin-2-yl]-2-(6,7-dihydro-5H-pyrrolo[1,2-c]imidazol-1-yl)-N-thiazol-2-yl-acetamide], the pIC50 was 8.40.

The molecule `O=C(Nc1nccs1)C(c1ccn2c1CCC2)N1Cc2c(F)cc(C#Cc3ccc(CN4CCC(O)CC4)cc3)cc2C1=O` (racemic) [Example 10, (2RS)-2-(6,7-Dihydro-5H-pyrrolizin-1-yl)-2-[4-fluoro-6-[2-[4-[(4-hydroxy-1-piperidyl)methyl]phenyl]ethynyl]-1-oxo-isoindolin-2-yl]-N-thiazol-2-yl-acetamide] showed a pIC50 of 8.10.

Molecule `O=C(Nc1nccs1)C(c1ncn2c1CCC2)N1Cc2c(F)cc(-c3ccc(N4CCNCC4)cc3)cc2C1=O` (racemic) [Example 3, (2RS)-2-(6,7-Dihydro-5H-pyrrolo[1,2-c]imidazol-1-yl)-2-[4-fluoro-1-oxo-6-(4-piperazin-1-ylphenyl)isoindolin-2-yl]-N-thiazol-2-yl-acetamide] gave a pIC50 of 8.70.

`O=C(Nc1nccs1)C(c1ncn2c1CCC2)N1Cc2c(F)cc(C#Cc3ccc(CO)cc3)cc2C1=O` (racemic) [Example 12, (2RS)-2-(6,7-Dihydro-5H-pyrrolo[1,2-c]imidazol-1-yl)-2-[4-fluoro-6-[2-[4-(hydroxymethyl)phenyl]ethynyl]-1-oxo-isoindolin-2-yl]-N-thiazol-2-yl-acetamide] gave a pIC50 of 8.70.

As to `O=C(Nc1nccs1)C(c1ncn2c1CCC2)N1Cc2c(Cl)cc(-c3ccc(N4CCC(O)CC4)cc3)cc2C1=O` (racemic) [Example 11, (2RS)-2-[4-Chloro-6-[4-(4-hydroxy-1-piperidyl)phenyl]-1-oxo-isoindolin-2-yl]-2-(6,7-dihydro-5H-pyrrolo[1,2-c]imidazol-1-yl)-N-thiazol-2-yl-acetamide], the pIC50 was 8.70.

In turn, `CN1CCN(Cc2ccc(C#Cc3cc(F)c4c(c3)C(=O)N(C(C(=O)Nc3nccs3)c3ncn5c3CCC5)C4)cc2)CC1` (racemic) [Example 1, (2RS)-2-(6,7-Dihydro-5H-pyrrolo[1,2-c]imidazol-1-yl)-2-[4-fluoro-6-[2-[4-[(4-methylpiperazin-1-yl)methyl]phenyl]ethynyl]-1-oxo-isoindolin-2-yl]-N-thiazol-2-yl-acetamide] had a pIC50 of 8.52. The pIC50 values of the last two molecules are within 0.2 log units of each other.

In turn, `O=C(Nc1nccs1)C(c1ncn2c1CCC2)N1Cc2c(F)cc(-c3ccc(N4CCC(O)CC4)cc3)cc2C1=O` (racemic) [Example 7, (2RS)-2-(6,7-Dihydro-5H-pyrrolo[1,2-c]imidazol-1-yl)-2-[4-fluoro-6-[4-(4-hydroxy-1-piperidyl)phenyl]-1-oxo-isoindolin-2-yl]-N-thiazol-2-yl-acetamide] gave a pIC50 of 9.00.

Molecule `O=C(Nc1nccs1)C(c1ncn2c1CCC2)N1Cc2c(Cl)cc(C#Cc3ccc(CN4CCC(O)CC4)cc3)cc2C1=O` (racemic) [Example 9, (2RS)-2-[4-Chloro-6-[2-[4-[(4-hydroxy-1-piperidyl)methyl]phenyl]ethynyl]-1-oxo-isoindolin-2-yl]-2-(6,7-dihydro-5H-pyrrolo[1,2-c]imidazol-1-yl)-N-thiazol-2-yl-acetamide] had a pIC50 of 8.40.

`CCN1CCN(c2ccc(-c3cc(F)c4c(c3)C(=O)N(C(C(=O)Nc3nccs3)c3ncn5c3CCC5)C4)cn2)CC1` (racemic) [Example 4, (2RS)-2-(6,7-Dihydro-5H-pyrrolo[1,2-c]imidazol-1-yl)-2-[6-[6-(4-ethylpiperazin-1-yl)-3-pyridyl]-4-fluoro-1-oxo-isoindolin-2-yl]-N-thiazol-2-yl-acetamide] showed a pIC50 of 8.40.

`O=C(Nc1nccs1)C(c1ncn2c1CCC2)N1Cc2c(F)cc(C#Cc3ccc(CN4CCC(O)CC4)cc3)cc2C1=O` (racemic) [Example 2, (2RS)-2-(6,7-Dihydro-5H-pyrrolo[1,2-c]imidazol-1-yl)-2-[4-fluoro-6-[2-[4-[(4-hydroxy-1-piperidyl)methyl]phenyl]ethynyl]-1-oxo-isoindolin-2-yl]-N-thiazol-2-yl-acetamide] showed a negative-log IC50 (pIC50) of 9.00. Against the preceding molecule, the pIC50 is 0.60 log units higher.

Take `O=C(Nc1nccs1)C(c1ncn2c1CCC2)N1Cc2c(Cl)cc(-c3ccc(N4CCC(O)CC4)nc3)cc2C1=O` (racemic) [Example 8, (2RS)-2-[4-Chloro-6-[6-(4-hydroxy-1-piperidyl)-3-pyridyl]-1-oxo-isoindolin-2-yl]-2-(6,7-dihydro-5H-pyrrolo[1,2-c]imidazol-1-yl)-N-thiazol-2-yl-acetamide]: the pIC50 is 8.70. Compared with the last molecule, the pIC50 is 0.30 log units lower.

As to `CCN1CCN(c2ccc(-c3cc(F)c4c(c3)C(=O)N(C(C(=O)Nc3nccs3)c3ncn5c3CCC5)C4)cc2)CC1` (racemic) [Example 5, (2RS)-2-(6,7-Dihydro-5H-pyrrolo[1,2-c]imidazol-1-yl)-2-[6-[4-(4-ethylpiperazin-1-yl)phenyl]-4-fluoro-1-oxo-isoindolin-2-yl]-N-thiazol-2-yl-acetamide], the pIC50 is 8.52.

The molecule `O=C(Nc1nccs1)C(c1ncn2c1CCC2)N1Cc2c(F)cc(C#Cc3ccc(CN4CCCCC4)cc3)cc2C1=O` (racemic) [Example 14, (2RS)-2-(6,7-Dihydro-5H-pyrrolo[1,2-c]imidazol-1-yl)-2-[4-fluoro-1-oxo-6-[2-[4-(1-piperidylmethyl)phenyl]ethynyl]isoindolin-2-yl]-N-thiazol-2-yl-acetamide] had a pIC50 of 8.40. The pIC50 values of the last two molecules are within 0.2 log units of each other.
